From patent US9371331B2, “Modulators of methyl modifying enzymes, compositions and uses thereof” (Constellation Pharmaceuticals, Inc., priority 2012, dated 2016) come the findings set out here.

One assay addresses Y641N EZH2 (Homo sapiens, UniProt Q15910, Y641N). Kind of assay: Y641N EZH2 assay: as EZH2 assay, with reconstituted H3K27Me2 oligonucleosomes as substrate. In kind it is biochemical.
For assay [1], the system named is H3K27me3 mark in HeLa cells. Kind of assay: H3K27me3 Alpha Hela Assay (AlphaLISA). It counts as cell-based. The note with it: 72 hrs; for EC50: Homo sapiens, read-out: H3K27me3_Alpha_HeLa_ (EC50). As for the experimental part: H3K27me3 Alpha Hela Assay (AlphaLISA).
Ten different doses of each test compound (in a series of 3-fold dilutions) were plated in duplicate 384-well tissue culture treated plates (Catalog #781080; Greiner Bio One; Monroe, N.C.). Hela cells grown in culture were trypsinized and counted using a Countess® cell counter (Catalog #C10281; Life Technologies, Grand Island, N.Y.). Cell were diluted to 67,000 cells per mL in 10% DMEM (Catalog #10569-010 Life Technologies. Grand Island, N.Y.) and 15 μL (1,000 cells) were plated into each well using the Biotek MicroFlo™ Select Dispenser (BioTek Instruments. Inc. Vermont, USA),) of the 384-well plate. Plates were incubated at 37° C./5% CO2 for 72 hrs. One of the duplicate plates was processed for HeLa assay and the other for viability.
To the plate processed for AlphaLISA was added 5 μL per well Cell-Histone Lysis buffer (1×) (Catalog #AL009F1 Perkin Elmer; Waltham, Mass.) and the plate was incubated at RT for 30 minutes on a plate shaker with low speed (Model#4625-Q Thermo Scientific; Waltham, Mass.). Then, 10 µL per well Histone Extraction buffer (catalog #AL009F2: Perkin Elmer; Waltham, Mass.) was added and the plate further incubated at RT for 20 min on plate shaker with low speed. To each well was then added 10 μL per well of a 5× mix of anti-K27me3 acceptor beads plus Biotinylated anti-Histone H3 (C-ter) Antibody (diluted to 3 nM final) (Catalog #AL118 Perkin Elmer; Waltham, Mass.). Dilution of the acceptor beads and then anti-Histone H3 was with 1× Histone Detection buffer (Catalog #AL009F3 Perkin Elmer; Waltham, Mass.) which was produced diluted from the 10× stock provided. The plate was sealed with an aluminum plate sealer and incubated at 23° C. for 60 min. We then added 10 μL 5× solution of Streptavidin Donor beads (Catalog #6760002 Perkin Elmer; Waltham, Mass.) (20 μg/mL final in 1× Histone Detection Buffer), sealed the plate with Aluminum plate sealer and incubated at 23° C. for 30 min. The plates were then read using an EnVision-Alpha Reader (model #2104 Perkin Elmer: Waltham, Mass.).
Data from both assays was analyzed using Assay Assistant (Constellation Pharmaceuticals In-house product) and Activity Base (IDBS Ltd. Surrey, UK) template. Data files were imported to Assay Assistant and assay conditions were specified. A unique Analysis ID was created and the data files exported to Activity Base. An analysis template was created on Activity Base to measure dose-dependent inhibition of H3K27me3 mark and cell viability respectively. Readout of DMSO wells were used to normalize the data. Resulting curves were fitted using Activity base software Model 205 (IDBS Ltd, Surrey, UK). The data was checked for quality, validated and integrated in excel format using SARview (IDBS Ltd, Surrey, UK).

A further assay concerns the target EZH2 (rPRC2) (Homo sapiens, UniProt Q15910). The assay can be described thus: EZH2 assay: rPRC2, biotinylated oligonucleosomes, 3H SAM methyl transfer (FlashPlate scintillation). In kind it is biochemical. Particulars: biotinylated oligonucleosome substrate.
In assay [2] the test system is H3K27me3 mark in HeLa cells. Kind of assay: H3K27me3 MSD Hela Assay. Particulars: Homo sapiens, HeLa, 96 h, read-out: H3K27me3_MSD_HeLa_ (EC50). In kind it is cell-based. In short, it runs like this:
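HeLa cells treated with compound at various concentrations for 96 h at 37 °C, then lysed with high-salt extraction. H3K27me3 measured by MSD electrochemiluminescence immunoassay on total-H3 capture plates. Dose-dependent inhibition normalised to DMSO wells and fitted to curves.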

[3] abbreviates: Y641N EZH2 IC50, Y641N mutant EZH2, H3K27Me2 oligonucleosome substrate.
The mark [4] stands for this setting: EZH2 IC50, wild-type EZH2 (rPRC2).
[5] abbreviates: Y641N mutant EZH2, H3K27Me2 oligonucleosome substrate, read-out: Y641N EZH2 IC50.
Setting [6] is: wild-type EZH2 (rPRC2), read-out: EZH2 IC50.

Like-named read-outs stand apart in the source and are kept apart here.

Sequence of EZH2 (rPRC2) (Q15910 whole entry): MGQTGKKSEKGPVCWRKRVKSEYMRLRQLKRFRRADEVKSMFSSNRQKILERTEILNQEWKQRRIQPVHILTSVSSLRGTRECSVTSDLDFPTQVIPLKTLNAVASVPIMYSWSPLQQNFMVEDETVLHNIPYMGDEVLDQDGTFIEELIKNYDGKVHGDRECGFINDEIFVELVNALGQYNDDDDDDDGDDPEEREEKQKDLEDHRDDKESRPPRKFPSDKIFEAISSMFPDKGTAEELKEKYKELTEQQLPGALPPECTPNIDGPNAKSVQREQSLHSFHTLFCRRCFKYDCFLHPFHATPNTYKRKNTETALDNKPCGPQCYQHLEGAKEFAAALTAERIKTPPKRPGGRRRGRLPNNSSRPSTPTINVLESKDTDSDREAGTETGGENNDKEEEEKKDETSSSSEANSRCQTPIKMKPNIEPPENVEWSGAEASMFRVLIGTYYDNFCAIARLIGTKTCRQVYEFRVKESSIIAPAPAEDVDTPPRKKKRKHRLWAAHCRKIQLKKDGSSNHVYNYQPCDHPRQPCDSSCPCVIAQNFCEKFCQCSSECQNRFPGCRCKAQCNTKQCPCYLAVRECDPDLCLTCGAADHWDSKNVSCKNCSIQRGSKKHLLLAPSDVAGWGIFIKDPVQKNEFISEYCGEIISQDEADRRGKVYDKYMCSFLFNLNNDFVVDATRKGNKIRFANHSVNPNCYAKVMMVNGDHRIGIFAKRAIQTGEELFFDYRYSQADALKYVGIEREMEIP
Sequence of EZH2 (rPRC2) (O75530 whole entry partner): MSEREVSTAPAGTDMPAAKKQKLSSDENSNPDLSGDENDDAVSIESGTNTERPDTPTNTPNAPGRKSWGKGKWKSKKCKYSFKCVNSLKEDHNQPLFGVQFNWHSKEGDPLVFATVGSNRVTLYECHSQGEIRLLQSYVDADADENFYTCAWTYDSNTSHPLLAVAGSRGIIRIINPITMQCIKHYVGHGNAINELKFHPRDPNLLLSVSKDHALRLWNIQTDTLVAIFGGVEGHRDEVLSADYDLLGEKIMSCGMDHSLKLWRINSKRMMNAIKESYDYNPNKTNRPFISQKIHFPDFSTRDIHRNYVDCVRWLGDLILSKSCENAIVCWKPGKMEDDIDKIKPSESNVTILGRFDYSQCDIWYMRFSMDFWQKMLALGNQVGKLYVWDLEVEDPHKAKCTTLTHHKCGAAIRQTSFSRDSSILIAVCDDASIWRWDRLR
Sequence of EZH2 (rPRC2) (Q15022 whole entry partner): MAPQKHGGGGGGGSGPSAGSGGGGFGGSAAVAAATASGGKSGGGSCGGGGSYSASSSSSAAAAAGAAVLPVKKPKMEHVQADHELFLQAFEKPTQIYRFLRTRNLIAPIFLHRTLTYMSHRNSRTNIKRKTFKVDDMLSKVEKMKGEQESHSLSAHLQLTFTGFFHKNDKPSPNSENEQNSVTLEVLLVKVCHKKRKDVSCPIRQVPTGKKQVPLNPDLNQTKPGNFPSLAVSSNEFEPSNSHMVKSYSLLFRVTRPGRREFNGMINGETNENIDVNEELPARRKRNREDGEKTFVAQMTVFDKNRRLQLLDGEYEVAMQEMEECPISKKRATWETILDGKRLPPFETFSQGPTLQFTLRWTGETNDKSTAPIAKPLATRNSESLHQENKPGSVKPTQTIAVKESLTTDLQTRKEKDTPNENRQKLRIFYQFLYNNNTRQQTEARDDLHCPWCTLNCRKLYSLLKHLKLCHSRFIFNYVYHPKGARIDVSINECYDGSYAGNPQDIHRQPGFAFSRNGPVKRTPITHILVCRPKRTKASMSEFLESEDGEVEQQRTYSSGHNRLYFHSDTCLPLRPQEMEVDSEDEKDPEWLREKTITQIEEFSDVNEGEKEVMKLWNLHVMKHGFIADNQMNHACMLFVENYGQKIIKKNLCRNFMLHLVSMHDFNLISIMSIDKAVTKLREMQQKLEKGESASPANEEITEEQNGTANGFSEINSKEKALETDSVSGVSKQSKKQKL
Sequence of Y641N EZH2 (Q15910 whole entry Y641N): as the sequence (Q15910 whole entry) above, with Y641N counted along it
Sequence of Y641N EZH2 (O75530 whole entry partner): as the sequence (O75530 whole entry partner) above
Sequence of Y641N EZH2 (Q15022 whole entry partner): as the sequence (Q15022 whole entry partner) above

With `COc1cc(C)[nH]c(=O)c1CNC(=O)c1c(C)n(C(C)C(C)OC)c2ccccc12` (racemic) [Compound 294, (±)-N-((4-methoxy-6-methyl-2-oxo-1,2-dihydropyridin-3-yl)methyl)-1-(3-methoxybutan-2-yl)-2-methyl-1H-indole-3-carboxamide], the IC50 on Y641N EZH2 (setting [3]) and against EZH2 (rPRC2) (setting [4]) was < 100 nM in each case. The EC50 in assay [1] and in assay [2] was < 400 nM in each case.
On to `COc1cc(C)[nH]c(=O)c1CNC(=O)c1c(C)n(C(C)c2ccccc2)c2ccccc12` (single isomer, unassigned) [Compound 114, (R or S)N-((4-methoxy-6-methyl-2-oxo-1,2-dihydropyridin-3-yl)methyl)-2-methyl-1-(1-phenylethyl)-1H-indole-3-carboxamide], for which the IC50 on Y641N EZH2 (setting [3]) and on EZH2 (rPRC2) (setting [4]) was < 100 nM throughout. Further, the values for the EC50 in assay [1] and in assay [2] were 400 to 2000 nM and < 400 nM, respectively.
Take `COc1cc(C)[nH]c(=O)c1CNC(=O)c1c(C)n(C(C)C2CCOCC2)c2ccccc12` (single isomer, unassigned) [Compound 298, (R or S)-N-((4-methoxy-6-methyl-2-oxo-1,2-dihydropyridin-3-yl)methyl)-2-methy1-1-(1-(tetrahydro-2H-pyran-4-yl)ethyl)-1H-indole-3-carboxamide]: the EC50 in assay [1] and in assay [2] was < 400 nM each time.
On to `COc1cc(C)[nH]c(=O)c1CNC(=O)c1c(C)n(C(C)C2CCN(c3ncccn3)CC2)c2ccccc12` (single isomer, unassigned) [Compound 361, (R or S)—N-((4-methoxy-6-methyl-2-oxo-1,2-dihydropyridin-3-yl)methyl)-2-methyl-1-(1-1-(pyrimidin-2-yl)piperidin-4-yl)ethyl)-1H-indole-3-carboxamide], for which the IC50 at Y641N EZH2 (setting [3]) and against EZH2 (rPRC2) (setting [4]) was < 100 nM in each case. The 50% effective concentration (EC50) in assay [1] is < 400 nM.
Turning to `COc1cc(C)[nH]c(=O)c1CNC(=O)c1c(C)n(C(C)C2CCN(CC(F)F)CC2)c2ccccc12` (single isomer, unassigned) [Compound 362, (R or S)-1-(1-(1-(2,2-difluoroethyl)piperidin-4-yl)ethyl)-N-((4-methoxy-6-methyl-2-oxo-1,2-dihydropyridin-3-yl)methyl)-2-methyl-1H-indole-3-carboxamide], the IC50 against Y641N EZH2 (setting [3]) and against EZH2 (rPRC2) (setting [4]) was < 100 nM throughout. Besides, the EC50 in assay [1] was < 400 nM.
With `CCOC(=O)CN1CCC(C(C)n2c(C)c(C(=O)NCc3c(OC)cc(C)[nH]c3=O)c3ccccc32)CC1` (single isomer, unassigned) [Compound 363, (R or S)-ethyl 2-(4-(1-(3-(((4-methoxy-6-methyl-2-oxo-1,2-dihydropyridin-3-yl)methyl)carbamoyl)-2-methyl-1 H-indol-1-yl)ethyl)piperidin-1-yl)acetate], the concentration for half-maximal inhibition (IC50) at Y641N EZH2 (setting [3]) and on EZH2 (rPRC2) (setting [4]) was < 100 nM each time. Moreover, the 50% effective concentration (EC50) in assay [1] was < 400 nM.
`Cc1cc(C)c(CNC(=O)c2c(C)n(C(C)C3CCN(CC(C)(C)O)CC3)c3ccccc23)c(=O)[nH]1` (single isomer, unassigned) [Compound 369, (R or S)-N-((4,6-dimethyl-2-oxo-1,2-dihydropyridin-3-yl)methyl)-1-(1-(1-(2-hydroxy-2-methylpropyl)piperidin-4-yl)ethyl)-2-methyl-1H-indole-3-carboxamide]: the IC50 against Y641N EZH2 (setting [3]) and against EZH2 (rPRC2) (setting [4]) was < 100 nM each time. The 50% effective concentration (EC50) in assay [1] is < 400 nM.
Regarding `COc1cc(C)[nH]c(=O)c1CNC(=O)c1c(C)n(C(C)C2CCN(c3ccccn3)CC2)c2ccccc12` (single isomer, unassigned) [Compound 373], the concentration for half-maximal inhibition (IC50) against Y641N EZH2 (setting [3]) and against EZH2 (rPRC2) (setting [4]) was < 100 nM throughout. Besides, in assay [1], the half-maximal effective concentration (EC50) was < 400 nM.
Regarding `COc1cc(C)[nH]c(=O)c1CNC(=O)c1c(C)n(C(C)C2CCOCC2)c2cc(-c3ccccc3)ccc12` (single isomer, unassigned) [Compound 374, (R or S)—N-((4-methoxy-6-methyl-2-oxo-1,2-dihydropyridin-3-yl)methyl)-2-methyl-6-phenyl-1-(1-(tetrahydro-2H-pyran-4-yl)ethyl)-1H-indole-3-carboxamide], the IC50 against Y641N EZH2 (setting [3]) and at EZH2 (rPRC2) (setting [4]) was < 100 nM each time. For the same compound, the EC50 in assay [1] is < 400 nM.
Take `Cc1cc(C)c(CNC(=O)c2c(C)n(C(C)C3CCN(C4CN(C)C4)CC3)c3ccccc23)c(=O)[nH]1` (single isomer, unassigned) [Compound 377, (R or S)-N-((4,6-dimethyl-2-oxo-1,2-dihydropyridin-3-yl)methyl)-2-methyl-1(1-(1-(1-methylazetidin-3-yl)piperidin-4-yl)ethyl)-1 H-indole-3-carboxamide]: the IC50 against Y641N EZH2 (setting [3]) and against EZH2 (rPRC2) (setting [4]) was < 100 nM throughout. The concentration giving a half-maximal response (EC50) in assay [1] is 400 to 2000 nM.
As to `COc1cc(C)[nH]c(=O)c1CNC(=O)c1c(C)n(-c2cccc3ncccc23)c2ccccc12` [Compound 330, N-((4-methoxy-6-methyl-2-oxo-1,2-dihydropyridin-3-yl)methyl)-2-methyl-1-(quinolin-5-yl)-1H-indole-3-carboxamide], the IC50 at Y641N EZH2 (setting [5]) and at EZH2 (rPRC2) (setting [6]) was < 100 nM each time. For the same compound, the EC50 in assay [1] was in the range of 400 to 2000 nM.
For the compound `COc1cc(C)[nH]c(=O)c1CNC(=O)c1c(C)n(C(C)C2CCN(C(=O)OC(C)(C)C)CC2)c2ncncc12` (stereo not shown) [Compound 332, tert-butyl 4-(1-(5-(((4-methoxy-6-methyl-2-oxo-1,2-dihydropyridin-3-yl)methyl)carbamoyl)-6-methyl-7H-pyrrolo[2,3-d]pyrimidin-7-yl)ethyl)piperidine-1-carboxylate], the IC50 on Y641N EZH2 (setting [5]) and on EZH2 (rPRC2) (setting [6]) was < 100 nM throughout. Also, in assay [1], the EC50 was in the range of 400 to 2000 nM.
In the case of `COCC(C)(C)n1c(C)c(C(=O)NCc2c(OC)cc(C)[nH]c2=O)c2ccccc21` [Compound 338, 1-(1-methoxy-2-methylpropan-2-yl)-N-((4-methoxy-6-methyl-2-oxo-1,2-dihydropyridin-3-yl)methyl)-2-methyl-1H-indole-3-carboxamide], the figures for the IC50 on Y641N EZH2 (setting [3]) and against EZH2 (rPRC2) (setting [4]) were 100 to 1000 nM and < 100 nM, respectively. Moreover, the EC50 in assay [1] lay in the range of 400 to 2000 nM.
As to `COc1cc(C)[nH]c(=O)c1CNC(=O)c1c(C)n(-c2cccc3c2CCCN3)c2ccccc12` [Compound 339, N-((4-methoxy-6-methyl-2-oxo-1,2-dihydropyridin-3-yl)methyl)-2-methyl-1-(1,2,3,4-tetrahydroquinolin-5-yl)-1H-indole-3-carboxamide], the IC50 on Y641N EZH2 (setting [5]) and at EZH2 (rPRC2) (setting [6]) was < 100 nM each time. Also, the EC50 in assay [1] was < 400 nM.
On to `COc1cc(C)[nH]c(=O)c1CNC(=O)c1c(C)n(C(C)C2CCN(S(C)(=O)=O)CC2)c2ncncc12` (stereo not shown) [Compound 370], for which the IC50 on Y641N EZH2 (setting [5]) and at EZH2 (rPRC2) (setting [6]) was < 100 nM in each case. Further, in assay [1], the “H3K27me3_Alpha_HeLa_ (EC50)” value is reported as “*(3.33 μM)”.
As to `COc1cc(C)[nH]c(=O)c1CNC(=O)c1c(C)n(-c2cccc3c2CCCN3S(C)(=O)=O)c2ccccc12` [Compound 371, N-((4-methoxy-6-methyl-2-oxo-1,2-dihydropyridin-3-yl)methyl)-2-methyl-1-(1-(methylsulfonyl)-1,2,3,4-tetrahydroquinolin-5-yl)-1H-indole-3-carboxamide], the IC50 on Y641N EZH2 (setting [5]) and at EZH2 (rPRC2) (setting [6]) was < 100 nM each time. In assay [1], the “H3K27me3_Alpha_HeLa_ (EC50)” value is listed as “*(3.33 μM)”.
